Measurements: patent US8952024B2, “Herbicidal pyrimidone derivatives” (E I du Pont de Nemours and Company, priority 2009, dated 2015)

Tests used:
Format in all cases: in vivo
[1] = tested on: velvetleaf (Abutilon theophrasti); test: Test A pre-/postemergence plant response
Outline: (§1)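 Pre: directed soil spray on seeded loam/sand blend. Post: same formulation (non-phytotoxic solvent + surfactant) on 2–10 cm plants, 1–2 leaf stage. Greenhouse ~10 d; visual injury score 0–100 vs untreated.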

[2] = tested on: wheat (Triticum aestivum); test: Test A pre-/postemergence plant response
Outline: as §1

[3] = tested on: giant foxtail (Setaria faberii); test: Test A pre-/postemergence plant response
Outline: as §1

[4] = tested on: corn (Zea mays); test: Test A pre-/postemergence plant response
Outline: as §1

[5] = tested on: pigweed (Amaranthus retroflexus); test: Test A pre-/postemergence plant response
Outline: as §1

[6] = tested on: large crabgrass (Digitaria sanguinalis); test: Test A pre-/postemergence plant response
Outline: as §1

[7] = tested on: morningglory (Ipomoea spp.); test: Test A pre-/postemergence plant response
Outline: as §1

[8] = tested on: barnyardgrass (Echinochloa crus-galli); test: Test A pre-/postemergence plant response
Outline: as §1

[9] = tested on: ducksalad (Heteranthera limosa); test: Test B flooded paddy test; details: for Plant response rating, Ducksalad: Flood (flooded paddy test), scale 0 to 100, 0 is no effect, 100 is complete control, 13 to 15 days
Outline: (§2)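 Seedlings reaching 2 leaves are flooded 3 cm deep; test material is delivered to that water, which stays at the same depth. Plants remain in a greenhouse 13–15 days and are then scored by eye versus controls from 0 to 100.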

[10] = tested on: rice (Oryza sativa); test: Test B flooded paddy test; details: for Plant response rating, Rice: Flood (flooded paddy test), scale 0 to 100, 0 is no effect, 100 is complete control, 13 to 15 days
Outline: as §2

[11] = tested on: windgrass (Apera spica-venti); test: Test B postemergence plant response; details: Postemergence
Outline: (§3)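 Plants at the 1- to 4-leaf stage (2 to 18 cm tall), grown in pots of peat moss/vermiculite medium with wetting agent and starter nutrients, received postemergence applications of test chemicals. After 13 to 15 days in a greenhouse, injury was rated visually against untreated controls on a 0 (no effect) to 100 (complete control) scale.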

[12] = tested on: canarygrass (Phalaris minor); test: Test B postemergence plant response; details: Postemergence
Outline: as §3

[13] = tested on: chickweed (Stellaria media); test: Test B postemergence plant response; details: Postemergence
Outline: as §3

[14] = Postemergence, 125 g ai/ha, visual injury, 0 to 100 scale (0 no effect, 100 complete control), approx. ten days
[15] = Postemergence, 500 g ai/ha, 0 to 100 scale, 0 = no effect, 100 = complete control, approx. ten days
[16] = Preemergence, 125 g ai/ha, 0 to 100 scale, 0 = no effect, 100 = complete control
[17] = Preemergence, 500 g ai/ha, visual injury, 0 to 100 scale (0 no effect, 100 complete control), approx. ten days
[18] = 250 g ai/ha, flooded paddy test, visual rating on 0 to 100 scale (0 no effect, 100 complete control) after 13 to 15 days
[19] = 62 g ai/ha, scale 0 (no effect) to 100 (complete control), 13 to 15 days
[20] = 125 g ai/ha, visual rating after 13 to 15 days, scale 0 (no effect) to 100 (complete control)
[21] = 31 g ai/ha, scale 0 to 100 (0 no effect, 100 complete control)
[22] = Postemergence, 125 g ai/ha, 0 to 100 scale where 0 is no effect and 100 is complete control
[23] = Postemergence, 500 g ai/ha, visual injury, 0 to 100 scale (0 no effect, 100 complete control), approx. ten days
[24] = Preemergence, 500 g ai/ha, 0 to 100 scale, 0 = no effect, 100 = complete control
[25] = Flood, 31 g ai/ha, scale 0 to 100 (0 no effect, 100 complete control)
[26] = 31 g ai/ha, 0 to 100 scale (0 no effect, 100 complete control)
[27] = 125 g ai/ha, scale 0 to 100 (0 no effect, 100 complete control)
[28] = 250 g ai/ha, scale 0 to 100 (0 no effect, 100 complete control), 13 to 15 days

Cc1c(Cl)cccc1-n1c(-c2ccccc2)ncc(C(=O)C2=C(O)CCCC2=O)c1=O [Compound 40]
10: Plant response rating, Morningglory [7, 16] | Plant response rating, Barnyardgrass [8, 16]
0: Wheat plant response rating [2, 14] | Plant response rating, Wheat [2, 15] | Plant response rating, Wheat [2, 16] | Plant response rating, Wheat [2, 17] | Corn plant response rating [4, 14] | Plant response rating, Corn [4, 16] | Plant response rating, Corn [4, 17] | Plant response rating, Ducksalad ([9]; 62 g ai/ha) | Plant response rating, Rice ([10]; 62 g ai/ha)
70: Plant response rating, Velvetleaf [1, 16] | Plant response rating, Pigweed [5, 16] | Plant response rating, Windgrass [11, 19]
80: Plant response rating, Morningglory [7, 17] | Plant response rating, Windgrass [11, 20]
100: Velvetleaf plant response rating [1, 14] | Plant response rating, Velvetleaf [1, 15] | Plant response rating, Velvetleaf [1, 17] | Plant response rating, Foxtail, Giant [3, 15] | Pigweed plant response rating [5, 14] | Plant response rating, Pigweed [5, 15] | Plant response rating, Crabgrass, Large [6, 15] | Plant response rating, Crabgrass, Large [6, 17] | Plant response rating, Morningglory [7, 15] | Plant response rating, Barnyardgrass [8, 17] | Plant response rating, Chickweed [13, 21] | Plant response rating, Chickweed [13, 19] | Plant response rating, Chickweed [13, 20] | Chickweed plant response rating ([13]; 250 g ai/ha, scale 0 to 100)
50: Plant response rating, Foxtail, Giant [3, 16] | Plant response rating, Corn [4, 15] | Morningglory plant response rating [7, 14]
30: Plant response rating, Canarygrass [12, 20]
25: Plant response rating, Flood, Rice [10, 18]
35: Canarygrass plant response rating ([12]; 250 g ai/ha, scale 0 to 100)
60: Plant response rating, Crabgrass, Large [6, 16]
90: Foxtail, Giant plant response rating [3, 14] | Plant response rating, Foxtail, Giant [3, 17] | Plant response rating, Pigweed [5, 17] | Crabgrass, Large plant response rating [6, 14] | Barnyardgrass plant response rating [8, 14] | Plant response rating, Barnyardgrass [8, 15] | Plant response rating, Flood, Ducksalad [9, 18]
20: Plant response rating, Canarygrass [12, 21] | Plant response rating, Canarygrass [12, 19]

O=C1CCCC(O)=C1C(=O)c1cnc(-c2cc(F)cc(F)c2)n(C2CCCCC2)c1=O [Compound 181]
50: Corn plant response rating [4, 23] | Plant response rating, Canarygrass [12, 26]
40: Plant response rating, Windgrass [11, 26]
65: Plant response rating, Rice ([10]; 125 g ai/ha) | Plant response rating, Windgrass [11, 28]
100: Plant response rating, Velvetleaf [1, 22] | Velvetleaf plant response rating [1, 23] | Plant response rating, Velvetleaf [1, 24] | Plant response rating, Foxtail, Giant [3, 22] | Foxtail, Giant plant response rating [3, 23] | Plant response rating, Pigweed [5, 22] | Pigweed plant response rating [5, 23] | Plant response rating, Pigweed [5, 16] | Plant response rating, Pigweed [5, 24] | Plant response rating, Crabgrass, Large [6, 24] | Morningglory plant response rating [7, 23] | Plant response rating, Barnyardgrass [8, 22] | Barnyardgrass plant response rating [8, 23] | Plant response rating, Barnyardgrass [8, 24] | Plant response rating, Chickweed [13, 26] | Plant response rating, Chickweed [13, 27] | Plant response rating, Chickweed [13, 28]
20: Plant response rating, Wheat [2, 24] | Plant response rating, Barnyardgrass [8, 16]
30: Plant response rating, Wheat [2, 22] | Plant response rating, Foxtail, Giant [3, 16] | Plant response rating, Morningglory [7, 22] | Plant response rating, Morningglory [7, 24]
90: Plant response rating, Crabgrass, Large [6, 22] | Crabgrass, Large plant response rating [6, 23] | Plant response rating, Crabgrass, Large [6, 16] | Plant response rating, Ducksalad ([9]; 125 g ai/ha) | Plant response rating, Canarygrass [12, 28]
60: Wheat plant response rating [2, 23] | Plant response rating, Windgrass [11, 27]
70: Plant response rating, Velvetleaf [1, 16]
10: Plant response rating, Corn [4, 22]
80: Plant response rating, Foxtail, Giant [3, 24]
85: Ducksalad plant response rating [9, 25] | Plant response rating, Canarygrass [12, 27]
0: Plant response rating, Wheat [2, 16] | Plant response rating, Corn [4, 16] | Plant response rating, Corn [4, 24] | Plant response rating, Morningglory [7, 16] | Rice plant response rating [10, 25]
